# Results from patent publication US10286034B2, “Uses of bremelanotide in therapy for female sexual dysfunction” (Palatin Technologies, Inc., priority 2012, dated 2019).
# Marks after values point to notes of the source that are not given here.
# Experiments:
# [1] = Example 1: ambulatory blood pressure monitoring after in-clinic dose; assay type: in vivo, human; conditions: for SBP: treatment group difference (from placebo) in mean change / DBP: treatment group difference (from placebo) in mean change: in mmHg (unit assumed); for HR-BP Product: treatment group difference (from placebo) in mean change: in mmHg·bpm (unit assumed); for Pulse: treatment group difference (from placebo) in mean change: in bpm
# Method: Ambulatory blood pressure monitoring was conducted following both placebo and randomized treatment group in-clinic administrations. Three periods of ambulatory blood pressure monitoring were included, the first period was from before to 24 hours after a single, in-clinic dose of placebo (to establish a baseline); the second and third periods occurred from before to 24 hours after each of 2 single, in-clinic doses of double-blind treatment, administered within 14 days of each other. Blood samples for pharmacokinetic analysis were collected before and at 0.5, 1.0, and 2.0 hours after each in-clinic bremelanotide single-dose treatment (double-blind only), to permit analysis of concentration-response relationships.
# Mean changes in blood pressure were characterized in all subjects based on sequential supervised dosing of single-blind subcutaneous placebo and two doses of randomized study drug. The primary analysis for mean changes was the difference between treatment groups in the change from single-blind placebo to randomized drug (Visit 2 vs. Visits 5/7). There were between 86 to 100 subjects in each dose group.
# Although there were an increased number of outliers for maximal changes from baseline in systolic blood pressure in drug-treated patients, the duration of these events was quite limited. The interrogation interval during ambulatory blood pressure monitoring assessments of 15 minutes allowed definition of the maximal duration of such excursions. […] The clinical significance of such changes, if any, is small.
# [2] = tested on: men diagnosed with erectile dysfunction; conditions: subcutaneous injection of 4 or 6 mg; cited from earlier work
# [3] = Adverse events with single-dose SC administration (Trials -14, -06, -10); assay type: in vivo, human
# Method: Subcutaneous dosing was tested in 5 Phase 1 trials (3 in females, 2 in males) and one Phase 2 trial (males). The most common adverse events associated with single-dose SC bremelanotide administration (Trials −14, −06, and −10) were somnolence (30%), flushing (15%), nausea (19%), and vomiting (10%).
# [4] = Subcutaneous trials in males: vomiting and tolerability; assay type: in vivo, human; conditions: for subjects experiencing vomiting (mild or moderate): males
# [5] = tested on: women diagnosed with sexual arousal disorder; conditions: single intranasal dose of 20 mg, cited from earlier work
# [6] = 1.25 mg SC, interval 8-24 h, V5
# [7] = 1.25 mg SC, interval 8-24 h, V7
# [8] = 1.75 mg SC, interval 0-24 h, V5
# [9] = 1.75 mg SC, interval 0-24 h, V7
# [10] = 1.75 mg SC, interval 8-24 h, V5
# [11] = 1.75 mg SC, interval 8-24 h, V7
compound,measurement,setting,value
"CCCC[C@H](NC(C)=O)C(=O)N[C@H]1CC(=O)NCCCC[C@@H](C(=O)O)NC(=O)[C@H](Cc2c[nH]c3ccccc23)NC(=O)[C@H](CCCNC(=N)N)NC(=O)[C@@H](Cc2ccccc2)NC(=O)[C@H](Cc2c[nH]cn2)NC1=O [bremelanotide, Ac-Nle-cyclo(-Asp-His-D-Phe-Arg-Trp-Lys)-OH]",SBP: treatment group difference (from placebo) in mean change,"[1]; 1.25 mg SC, interval 4-8 h, V7",1.3*
same,HR-BP Product: treatment group difference (from placebo) in mean change,"[1]; 1.25 mg SC, interval 4-8 h, V7",−669.7*
same,Pulse: treatment group difference (from placebo) in mean change,[1]; [6],−1.5
same,DBP: treatment group difference (from placebo) in mean change,[1]; [6],1.4*
same,SBP: treatment group difference (from placebo) in mean change,[1]; [6],0.7
same,HR-BP Product: treatment group difference (from placebo) in mean change,[1]; [6],−127.4
same,Pulse: treatment group difference (from placebo) in mean change,[1]; [7],−0.7
same,DBP: treatment group difference (from placebo) in mean change,[1]; [7],1.7*
same,SBP: treatment group difference (from placebo) in mean change,[1]; [7],1.5*
same,HR-BP Product: treatment group difference (from placebo) in mean change,[1]; [7],4.2
same,Pulse: treatment group difference (from placebo) in mean change,"[1]; 1.75 mg SC, interval 0-4 h, V5",−4.6*
same,DBP: treatment group difference (from placebo) in mean change,"[1]; 1.75 mg SC, interval 0-4 h, V5",3.2*
same,SBP: treatment group difference (from placebo) in mean change,"[1]; 1.75 mg SC, interval 0-4 h, V5",3.1*
same,HR-BP Product: treatment group difference (from placebo) in mean change,"[1]; 1.75 mg SC, interval 0-4 h, V5",−305.9
same,Pulse: treatment group difference (from placebo) in mean change,"[1]; 1.75 mg SC, interval 0-4 h, V7",−4.7*
same,DBP: treatment group difference (from placebo) in mean change,"[1]; 1.75 mg SC, interval 0-4 h, V7",2.6*
same,SBP: treatment group difference (from placebo) in mean change,"[1]; 1.75 mg SC, interval 0-4 h, V7",2.5*
same,HR-BP Product: treatment group difference (from placebo) in mean change,"[1]; 1.75 mg SC, interval 0-4 h, V7",−375.4*
same,Pulse: treatment group difference (from placebo) in mean change,[1]; [8],−2.2*
same,DBP: treatment group difference (from placebo) in mean change,[1]; [8],1.9*
same,SBP: treatment group difference (from placebo) in mean change,[1]; [8],1.6
same,HR-BP Product: treatment group difference (from placebo) in mean change,[1]; [8],−139.1
same,Pulse: treatment group difference (from placebo) in mean change,[1]; [9],−2.2*
same,DBP: treatment group difference (from placebo) in mean change,[1]; [9],1.8*
same,SBP: treatment group difference (from placebo) in mean change,[1]; [9],1.3
same,HR-BP Product: treatment group difference (from placebo) in mean change,[1]; [9],−184.1
same,Pulse: treatment group difference (from placebo) in mean change,"[1]; 1.75 mg SC, interval 4-8 h, V5",−6.6*
same,DBP: treatment group difference (from placebo) in mean change,"[1]; 1.75 mg SC, interval 4-8 h, V5",2.3*
same,SBP: treatment group difference (from placebo) in mean change,"[1]; 1.75 mg SC, interval 4-8 h, V5",2.1
same,HR-BP Product: treatment group difference (from placebo) in mean change,"[1]; 1.75 mg SC, interval 4-8 h, V5",−608.1*
same,Pulse: treatment group difference (from placebo) in mean change,"[1]; 1.75 mg SC, interval 4-8 h, V7",−6.6*
same,DBP: treatment group difference (from placebo) in mean change,"[1]; 1.75 mg SC, interval 4-8 h, V7",2.2*
same,SBP: treatment group difference (from placebo) in mean change,"[1]; 1.75 mg SC, interval 4-8 h, V7",2.2
same,HR-BP Product: treatment group difference (from placebo) in mean change,"[1]; 1.75 mg SC, interval 4-8 h, V7",−624.5*
same,Pulse: treatment group difference (from placebo) in mean change,[1]; [10],−0.8
same,DBP: treatment group difference (from placebo) in mean change,[1]; [10],1.4*
same,SBP: treatment group difference (from placebo) in mean change,[1]; [10],0.9
same,HR-BP Product: treatment group difference (from placebo) in mean change,[1]; [10],−23.7
same,Pulse: treatment group difference (from placebo) in mean change,[1]; [11],−0.5
same,DBP: treatment group difference (from placebo) in mean change,[1]; [11],1.4
same,SBP: treatment group difference (from placebo) in mean change,[1]; [11],0.6
same,HR-BP Product: treatment group difference (from placebo) in mean change,[1]; [11],−31.3
same,maximal change in systolic pressure,"[1]; 1.75 mg dosing group, average of Visits 5 and 7",3.15 mm Hg
same,change in blood pressure,"[1]; drug treated subjects, predominantly within 4 hours of dosing",~2 mm Hg
same,erectile response,[2],statistically significant erectile response compared to placebo
same,flushing incidence,[3],15%
same,nausea incidence,[3],19%
same,somnolence incidence,[3],30%
same,vomiting incidence,[3],10%
same,subjects experiencing vomiting (mild or moderate),[4]; 7.5 mg dose level,1 of 6
same,subjects experiencing vomiting (mild or moderate),[4]; 5-mg dose level,1 of 6
same,subjects experiencing vomiting (mild or moderate),[4]; 10-mg dose level,3 of 6
same,tolerability,"[4]; single subcutaneous doses of 4 and 6 mg, male subjects with ED and preexisting hypertension",improved tolerability
same,vaginal pulse amplitude measures,[5]; compared to placebo,"without statistically relevant differences, compared to placebo"
same,reported feelings of sexual arousal,[5],statistically relevant reported feelings of sexual arousal
